We go through seven molecules from patent US12606802B2, “Methods and compositions for improving the assembly of adeno-associated viruses (AAVs)” (priority 2019, dated 2026).

One data set relates to AAV2 and AAV8 vector. Put plainly: Vector production in HEK293 cells with chemical inhibitors, DRP by qPCR, serotype not separated. In kind it is cell-based, adeno-associated virus. How it is done: (§1) Inhibitor-containing media was added to wells and transfection mixtures containing either AAV2 (light bars) or AAV8 (dark bars) production plasmids were added dropwise on top, and vector harvested 48 h later (FIG. 8A). […] To examine whether any of these were not directly inhibiting capsid assembly but rather a result of poor transfection efficiency, an upstream but important factor for vector production, the experiment was repeated adding inhibitors 4 h after transfection mixture was added to allow transfection steps to initiate (FIG. 8B).
A general note: In qPCR the cycle at which signal appears reflects the starting amount.

The subject of data set [1] is HEK293 cells. The data set can be described thus: General transfection efficiency by imaging EGFP positive cells. In kind it is cell-based. The conditions noted are these: for transfection efficiency / EGFP expression: inhibitor 4 h post transfection.
For the next data set, the system named is AAV. To be noted: cited from earlier work.
Data set [2] concerns PEI-mediated transfection of plasmid DNA. The conditions noted are these: cited from earlier work.
The subject of another data set is VP proteins. The conditions noted are these: cited from earlier work.
For a further data set, the system named is AAV8. Put plainly: AAV8 vector production in HEK293 cells with chemical inhibitors, DRP by qPCR. In kind it is cell-based, adeno-associated virus. As to the method:
as §1

For the next data set, the system named is AAV2. The data set can be described thus: AAV2 vector production in HEK293 cells with chemical inhibitors, DRP by qPCR. In kind it is cell-based, adeno-associated virus. How it is done: as §1
The test system of data set [3] is HEK293 cells. The data set can be described thus: Cell viability by ATP levels (Cell Titer Glo). In kind it is cell-based. To be noted: 48 h. Background: Cellular ATP, detected with luciferase, serves as a proxy for viable cell number.
The subject of data set [4] is HEK293 cells. To be noted: 270 uM; 48 h.
Experimental: General transfection efficiency was assessed visually by imaging EGFP positive cells (EGFP is present in the ITR-flanked transgene plasmid), and cell health was assessed visually by brightfield imaging and quantitatively by ATP levels in drug treated wells (light shading, FIG. 8B).
In these experiments, production plasmids were transfected into HEK293 cells and the appropriate inhibitor was serial diluted and added 4 h later at the concentrations indicated along the x-axis. The inhibitor was added at the same concentrations to a parallel plate and ATP levels were quantified by Cell Titer Glo® to assess cell viability after 48 h of incubation. General transfection efficiency (EGFP; present on ITR-flanked transgene plasmid) and cell morphology (Brightfield), at concentrations listed along the x-axis, were assessed by microscopy at 48 h, immediately before vector harvest from the same well.
Where [5] appears, read: inhibitor added immediately before transfection, harvest 48 h.
Setting [6] is: inhibitor added 4 h after transfection, harvest 48 h.
The mark [7] stands for this setting: 6.25 μM, inhibitor added 4 h after transfection.
Setting [8] is: higher concentrations, particularly 90-270 uM, 4 h post transfection.

“Also recorded” adds a separate entry of the source.

With `CO/C1=C\C(C)=C\[C@@H](C)[C@@H](O)[C@@H](C)C/C(C)=C/C=C/[C@H](OC)[C@@H]([C@@H](C)[C@@H](O)[C@H](C)[C@@]2(O)C[C@@H](O)[C@H](C)[C@@H](C(C)C)O2)OC1=O` [Bafilomycin A1], the “reduction in vector titer” value with AAV2 and AAV8 vector (added 4 h post transfection at low doses) is 10 fold. For the same molecule, the vector production entry with AAV2 and AAV8 vector (inhibitor added immediately before transfection, all doses, harvest 48 h) is “abolished vector production to background levels”. For the same molecule, the vector titer result in the data set on AAV2 and AAV8 vector (setting [5]) is “abolished vector production”. For the same molecule, in the data set on HEK293 cells [1] (low doses, added 4 h post transfection), the transfection efficiency result is “no visibly appreciable effect”. In addition, the AAV infection entry in the data set with AAV is given as “blocks AAV infection”. Besides, the “PEI-mediated transfection of plasmid DNA” value in [2] was “blocks PEI-mediated transfection of plasmid DNA”. Also, the “VP protein in the absence of AAP” value in the data set on VP proteins is on record as “rescue VP protein; also recorded: rescues degradation of some serotype's VP proteins”.

As to `O=C1NC(=NCc2cccs2)S/C1=C\c1ccc2ncccc2c1` [Cdk1 inhibitor IV], the vector titer entry in the data set with AAV2 and AAV8 vector (setting [6]) was “did not affect vector titer without concomitant decreases in both cell health and transfection efficiency”. Further, the AAV8 titer result with AAV8 (setting [7]) is on record as “appreciable decrease”. In addition, in the data set with AAV2 (setting [7]), the AAV2 production entry is on record as “no effect”. In addition, the cell viability entry in the data set with HEK293 cells [3] (6.25 μM, added 4 h after transfection) was “without affecting cell viability”.

For the molecule `NS(=O)(=O)c1ccc(N/N=C2\C(=O)Nc3ccc(Br)cc32)cc1` [Cdk2 inhibitor II], the AAV8 production entry in the data set with AAV8 (setting [8]) was “dose-dependent effect”. Also, in the data set with AAV8 (higher concentrations, 4 h post transfection), the “decrease in AAV8 titer” value is listed as ~10 fold. For the same molecule, in the data set on AAV2 (setting [8]), the AAV2 production result is recorded as “dose-dependent effect”. In the data set on HEK293 cells [3] (90-270 uM), the “cell viability (as assayed by ATP)” value is listed as “without affecting cell viability”. In addition, the “gross transfection efficiency (by EGFP visualization)” value in the data set on HEK293 cells [1] (90-270 uM, 48 h) is “without affecting”. In addition, the cell morphology entry in the data set on HEK293 cells [4] is “affected”.

In the case of `O=[N+]([O-])c1ccc(F)c([N+](=O)[O-])c1` [FDNB], the “per cell vector production (GC per living cell)” value in the data set on AAV2 and AAV8 vector (4 h post transfection, likely artefact of ATP-based viable cell count) was “increase”.

Take `NS(=O)(=O)OC[C@H]1C[C@@H](Nc2ncncc2C(=O)c2ccn(Cc3cccc(Br)c3)n2)C[C@@H]1O` [ML-792]: the “transfection efficiency / EGFP expression” value in the data set on HEK293 cells [1] (48 h) is on record as “dramatic loss”.

Regarding `Cc1ccc2nc(CN(CCN(Cc3nc4ccc(C)cc4[nH]3)Cc3nc4ccc(C)cc4[nH]3)Cc3nc4ccc(C)cc4[nH]3)[nH]c2c1` [NSC348884], the vector titer entry is listed as “not seen” with AAV2 and AAV8 vector (setting [6]); “large effect” with AAV2 and AAV8 vector (setting [5]).

On to apoptazole, for which the vector titer entry in the data set with AAV2 and AAV8 vector (setting [6]) was “strong dose dependent decrease”. Also, the “vector production (GC per living cell as percentage of DMSO control)” value in the data set with AAV8 (AAV8, lowest level reached, inhibitor 4 h post transfection) worked out at 5%. Further, the “cell death as assayed by ATP abundance” value in the data set with HEK293 cells [3] (300 uM) was “did not show appreciable cell death”. The “expression of EGFP” value with HEK293 cells [1] (300 uM, 48 h) is reported as “robust expression of EGFP”. Moreover, in the data set on HEK293 cells [1] (48 h), the “transfection efficiency / EGFP expression” value is given as “no apparent loss”.
